For series [1], the system named is oxotremorine syndrome in the mouse. Conditions: for Anticholinergic activ. (antagonism against oxotremorine syndrome): in vivo, po, 100 mg/kg. Here is the method: (§1) Considering that some anti-ulcer agents display, as does atropine, a remarkable but undesired anticholinergic activity, the compound of the present invention was also assessed for its antagonism against the syndrome induced by intraperitoneally (i.p.) administered oxotremorine in mice, according to the method described by G. P. Leszkovsky and L. Tardos (Europ. J. Pharmac. 1971, 15, 310). Given test compound embodiments were administered to groups of 5 male mice, 20-25 g body weight, at the screening dose of 100 mg/kg per os. The degree of peripheral cholinergic activation induced by oxotremorine was measured b salivation and lachrymation, and the degree of central cholinergic activation by the severity of tremors and hypothermia. […] The approximate acute toxicity (LD50) of the compounds of the invention was determined in the mouse and in the rat by single oral administration of increasing doses and measured on the seventh day after treatment. […] Ranitidine, the well known anti-ulcer agent, was used as comparison compound.

Series [2] has as its system duodenal ulcers induced in rats by cysteamine. The series can be described thus: inhibition of duodenal ulcers induced in rats by cysteamine. In kind it is in vivo. The note with it: po, rat. On the procedure: The inhibition of duodenal ulcers, induced in rats by cysteamine, was evaluated for the tested compounds as percentage inhibition of ulcer index [sum of the lesioned areas per rat (mm^2)] according to the method of Fujii Y. et al, Jap. J. Pharm. 25, 663, 1975, and expressed as ED50.

The test system of series [3] is gastric ulcers induced in rats by stress. Description: inhibition of stress ulcers in rats (restraint in water at 23° C. for 4 hours). Format: in vivo, rat (Charles River male). The note with it: po, rat, p.o. one hour before stress, number of ulcers. On the procedure:
The anti-ulcerogenic activity of the compound of the present invention is shown also by the fact that embodiments of the same are active in the test of inhibition of stress ulcers in rats (restraint in water at 23° C. for 4 hours), according to the method of M. Usardi et al. (Prostaglandins, 8, 43, 1974). The tested compounds were administered per os one hour before the stress. Six Charles River male rats (140±10 g body weight), which had fasted for 16 hours, were used for each experimental group. At the end of the stress, the rats were killed and the gastric ulcers evaluated by counting them. The inhibition of gastric ulcerations, evaluated as percentage inhibition of ulcer index (number of ulcers), was expressed as ED50.

Series [4] in a line: approximate acute toxicity (LD50) in the rat, single oral administration. The note with it: in vivo. On the procedure: as §1
Series [5] has as its system ASA induced gastric ulcers in rats. The series can be described thus: inhibition of acetyl salicyclic acid (ASA) induced gastric ulcers in rats. In kind it is in vivo, rat (male Sprague Dawley). The note with it: po, 4 h, rat, p.o. 60 min before ASA 100 mg/kg, dose reducing ulcer index by 50%. On the procedure:
The anti-ulcerogenic activity of the present compound is shown, for example, by the fact that embodiments of the present compound are active in the test of inhibition of acetyl salicyclic acid (ASA) induced gastric ulcers in rats as described by M. Hemmati et al in Pharmacology, 9, 374, 1973. Male Sprague Dawley rats [Crl: CD (SD) BR] (Charles River Italy) weighing 190±10 g, which had fasted for 15 hours, but given free access to water, were administered ASA (100 mg/kg per os in 0.2 ml/100 g b.w.) 60 minutes after the oral treatment with the tested compounds. Gastric ulcerations were evaluated 4 hours after ASA treatment. The inhibition of gastric ulcerations, evaluated as percentage inhibition of ulcer index (sum of ulcer length in millimeters), was expressed as ED50 (dose which reduces gastric ulcerations by 50% in comparison with control rats).

The test system of series [6] is basal gastric secretion output HCl. The series can be described thus: gastric anti-secretory activity in rats, pylorus ligature technique. The note with it: Column 4, rat, intraduodenal (i.d.), 4 hours, read-out: Antisecretory activ.: inhibition of basal gastric secretion output HCl (ED50). In kind it is in vivo, rat (Sprague-Dawley male). Here is the method: The gastric anti-secretory activity of the compound of the present invention was evaluated in rats by the pylorus ligature technique (H. Shay et al, Gastroenterology 5, 43 1945). Six Sprague-Dawley male rats (110-130 g body weight) for each group were used. Twenty-four hours before the test, the rats were deprived of food while water was maintained. On the day of operation, the pylorus was ligated under light ether anaesthesia. Four hours after the ligature the rats were sacrificed, the stomach secretion collected, centrifuged at 3500 r.p.m. for 10 minutes and the volume, less sediment, was determined. The amount of free hydrochloric acid in the gastric juice was determined by titration against 0.1N sodium hydroxide to an end point of pH 7. All the compounds were injected intraduodenally at the time of ligature. The results, expressed as ED50 mg/kg (the dose which reduced the output of hydrochloride acid by 50% in comparison with control rats) are reported in column 4 of Table 1.

Series [7] in a line: approximate acute toxicity (LD50) in the mouse, single oral administration. Conditions: in vivo. On the procedure:
as §1

The next series concerns the target T1, histamine H2-receptor (Cavia porcellus, UniProt P47747).
T1 construct: histamine-induced rate increase
Description: histamine H2-receptor antagonist activity in vitro on the guinea pig right atrium. The note with it: Column 5; guinea pig atria in vitro; screening dose 1 × 10^-5 M; 'More active' continues 'than Ranitid.'; active if it shifts histamine curve right at ≤1×10^-5 M. Here is the method: The compound of the present invention was assayed for histamine H2 -receptor antagonist activity in vitro on the guinea pig right atrium. Male guinea pigs were killed by a blow on the head and the heart was quickly excised and placed in oxygenated Ringer Lock solution of the following composition (g/l): NaCl 9, KCl 0.42, CaCl2 0.24, NaHCO3 0.5, Glucose 1. Atria were dissected away from the rest of the heart, freed from connective tissue, suspended in a 20 ml organ bath containing Ringer Locke solution thermoregulated at 37° C., and carboxygenated with 95% O2 and 5% CO2. Atria spontaneously beating were allowed to adjust to the bath conditions for at least 30 minutes prior to the experiment. Histamine was added to the bath in cumulative fashion starting from 3×10^-7 M to 1×10^-4 M. The histamine-induced increase in atrial rate was allowed to plateau before the next successive concentration was added. After washing and waiting for the recovery of atria rate, a compound was added 5 minutes before repeating the cumulative dose response curve with histamine. A compound is considered an H2 -receptor antagonist if it is able to shift the dose response curve of histamine to the right at a concentration ≤1×10^-5 M. The results are reported in column 5 of Table 1.

Structures are written as SMILES. Where a name gives a salt, the structure may show the parent alone. A value given as a limit tells only on which side of the number the result lay.

T1 sequence (P47747 whole entry): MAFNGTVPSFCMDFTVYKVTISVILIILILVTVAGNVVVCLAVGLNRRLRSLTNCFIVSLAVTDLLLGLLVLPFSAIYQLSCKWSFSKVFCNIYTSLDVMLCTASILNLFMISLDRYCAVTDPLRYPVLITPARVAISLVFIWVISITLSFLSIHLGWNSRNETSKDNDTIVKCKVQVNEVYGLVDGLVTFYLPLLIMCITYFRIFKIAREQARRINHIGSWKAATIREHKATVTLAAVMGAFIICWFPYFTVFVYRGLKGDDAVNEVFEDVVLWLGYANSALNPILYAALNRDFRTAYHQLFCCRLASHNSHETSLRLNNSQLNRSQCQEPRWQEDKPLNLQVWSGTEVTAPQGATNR

`CNC(=C[N+](=O)[O-])NCCSCc1ccc(CN(C)C)o1` [Ranitidine, reference compound]: the “Anticholinergic activ. (antagonism against oxotremorine syndrome)” value in series [1] is “Inactive”. Further, the ED50 in series [2] stood at 10.7 mg/kg; in series [3], 6.2 mg/kg; in series [5] it was 0.5 mg/kg; in series [6] it was 7 mg/kg. Besides, the LD50 at 168 h in series [4] and in series [7] was > 800 mg/kg throughout.
Regarding `CC(C)NC(=S)N1CCc2nc(NC(=N)N)sc2C1` [Example 15, 2-Guanidino-5-(isopropyl-thiocarbamoyl)-4,5,6,7-tetrahydrothiazolo[5,4-c]pyridine], in series [1], the “Anticholinergic activ. (antagonism against oxotremorine syndrome)” value is reported as “Inactive”. Further, the ED50 is < 50 mg/kg in series [3], 0.5 mg/kg in series [5] and < 5 mg/kg in series [6]. Moreover, the Anti-H2 activ. entry on histamine H2-receptor is given as “Active”. In addition, the LD50 at 168 h in series [7] was 400 to 800 mg/kg.
Consider `CN1[C@@H]2CC[C@H]1C[C@@H](OC(=O)C(CO)c1ccccc1)C2` (stereo partly shown) [Atropine sulfate, reference compound], for which the “peripheral and central effects induced by oxotremorine” value in series [1] (oxotremorine i.p., dose of atropine sulfate not given) is “suppressed both peripheral and central effects”.
As for `CC(C)NC(=O)N1CCc2nc(NC(=N)N)sc2C1` [Example 16, 2-Guanidino-5-(isopropyl-carbamoyl)-4,5,6,7-tetrahydrothiazolo[5,4-c]pyridine], the “Anticholinergic activ. (antagonism against oxotremorine syndrome)” value in series [1] is given as “Inactive”. Further, the ED50 was 0.4 mg/kg in series [2], 2.9 mg/kg in series [3], 0.017 mg/kg in series [5] and 0.33 mg/kg in series [6]. In addition, the 50% lethal dose (LD50) at 168 h in series [4] was > 800 mg/kg; in series [7] it was 200 to 400 mg/kg. At histamine H2-receptor, the Anti-H2 activ. entry was “More active”.
For the compound `CC(C)NC(=S)N1CCc2nc(N)sc2C1` [Example 2, 2-Amino-5-(isopropyl-thiocarbamoyl)-4,5,6,7-tetrahydrothiazolo[5,4-c]pyridine], the “Anticholinergic activ. (antagonism against oxotremorine syndrome)” value in series [1] is “Inactive”. Also, the ED50 in series [3] was 2.7 mg/kg; in series [5], ~5 mg/kg; in series [6], 1 mg/kg. For the same compound, the LD50 at 168 h in series [7] was in the range of 400 to 800 mg/kg.
For the compound `N=C(N)Nc1nc2c(s1)CN(C(=O)NC1CC1)CC2` [Example 22, 2-Guanidino-5-(cyclopropyl-carbamoyl)-4,5,6,7-tetrahydrothiazolo[5,4,-c]pyridine], the “Anticholinergic activ. (antagonism against oxotremorine syndrome)” value in series [1] is recorded as “Inactive”. The ED50 in series [2] amounted to 0.3 mg/kg; in series [3], 20.2 mg/kg; in series [5], 0.08 mg/kg; in series [6] it was 1.7 mg/kg. The LD50 at 168 h in series [4] and in series [7] was > 800 mg/kg in each case. Further, the Anti-H2 activ. entry on histamine H2-receptor is listed as “More active”.
On to `CNC(=O)N1CCc2nc(N)sc2C1` [Example 5, 2-Amino-5-(methyl-carbamoyl)-4,5,6,7-tetrahydrothiazolo[5,4-c]pyridine], for which, in series [1], the “Anticholinergic activ. (antagonism against oxotremorine syndrome)” value is listed as “Inactive”. For the same compound, the ED50 in series [3] is > 25 mg/kg; in series [5], 1.2 mg/kg; in series [6], > 5 mg/kg. In series [7], the LD50 at 168 h was in the range of 200 to 400 mg/kg.

The record behind these values is patent US4624956A, “Ulcer and gastric secretion inhibiting 4,5,6,7-tetrahydrothiazole[5,4-c]pyridine derivatives” (priority 1983, dated 1986).
